According to patent EP2924037A1, “QUINAZOLINE DERIVATE AND USE THEREOF AS APOPTOSIS INHIBITOR” (Linx Pharmaceutical Co., Ltd., priority 2012, dated 2013):
Where two headings read alike, the source gives them in different places.

Columns and labels:
[1] = Effect on serum glucose in mice; format: in vivo; settings: Mus musculus, ip; 0.4 mg/kg i.p. once, measured 18 hours later; t-test P<0.01 for terazosin; read-out: reduction of the serum glucose level
Procedure: Mice were injected terazosin (0.4 mg/kg i.p.) once. The serum glucose level of the mice was measured 18 hours later. […] By the same method, exemplary compounds Co.1, Co.3, Co.7, Co.9, Co.13, Co.16, Co.19, Co.24, Co.27 and Co.32 as described in the present invention were all shown to be effective to reduce the serum glucose level by 20% to 50%.

pgk1 = molecular target: T1, pgk1 (Mus musculus, UniProt P09411); test: Activity assay of pgk1 (GAPDH-coupled, absorbance at 340 nm); format: biochemical
T1 construct: His; made in house; host or cells: E. coli
T1 sequence (P09411 1-417): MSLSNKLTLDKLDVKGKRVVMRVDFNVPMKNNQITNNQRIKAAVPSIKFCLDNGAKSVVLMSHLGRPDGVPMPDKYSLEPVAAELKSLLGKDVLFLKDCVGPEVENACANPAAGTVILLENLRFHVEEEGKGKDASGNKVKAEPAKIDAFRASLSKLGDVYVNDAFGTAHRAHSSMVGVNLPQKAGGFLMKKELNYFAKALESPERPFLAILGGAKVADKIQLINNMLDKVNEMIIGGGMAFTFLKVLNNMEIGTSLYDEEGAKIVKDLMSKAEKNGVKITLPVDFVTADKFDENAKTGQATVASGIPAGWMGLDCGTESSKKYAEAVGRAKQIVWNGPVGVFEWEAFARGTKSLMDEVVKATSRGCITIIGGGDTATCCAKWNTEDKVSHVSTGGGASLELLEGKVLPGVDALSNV
Procedure: The recombinant mouse pgk1 protein (His-pgk1) was expressed in the E. Coli. The protein was purified by a Nickel column. The proteins were diluted to 0.15 unit /mL. Then, different concentrations of terazosin were added to determine the pgk1 activity.
According to the components of Colorimetric GAPDH Assay Kit (ScienCells), the reaction solution was prepared with solutions of GAPDH, HEPES, and MgSO4. A predetermined concentration of the compound of Formula I was added to the reaction solution (30 mM Hepes, 3 mM ATP, 0.22 mM NADH, 10 mM MgSO4, 10 mM 3-PGA, 3-4 U/ml GAPDH, pH 7.5). Absorbance was measured at 25 °C with a spectroscope (340 nm). Relative activity of pgk1 was calculated based on the changes of absorbance value within 1-10 minutes. The activity has a positive correlation with the changes of absorbance value. The absorbance of the same compound at 340 nm was subtracted in the test group.

cerebral thrombosis = test: Mouse model of cerebral thrombosis, infarct volume; format: in vivo; settings: 0.4 mg/kg i.p.; 6 mice per condition; t-test P<0.05
Procedure: In a mouse model of cerebral thrombosis, the mouse brains were stained after death from thrombosis. […] The statistical analysis was performed based on % infarct volume = white area/total area, 6 mice were tested for each condition. t-test, P<0.05.

[2] = system: sepsis models (LPS; Cecal Ligation and Puncture); test: Effects against sepsis (LPS and CLP models), 7-day survival; format: in vivo, BALB/C mice; settings: i.p. once a day for 3 days at 0.4 mg/kg; 7-day period; P < 0.05 compared to negative controls
Procedure: After 1.5 hours, compounds were injected (i.p.) at a predetermined concentration. Mouse survival was examined every 12 hours for 7 days. Statistical significance of the difference in the survival rates was analyzed.
Another model is Cecal Ligation and Puncture (CLP) model of sepsis. Mice were anesthetized. A 1.5-2.0 cm long abdominal midline incision was made and the cecum was exposed. After ligation 5 mm from the cecal tip, the cecum was punctured once with a 22-gauge needle, and some stool was squeezed out. Then the cecum was put back into the abdomen and the abdomen was closed by running suture. After 1.5 hours, compounds were injected (i.p.) at a predetermined concentration. Mouse survival was examined every 12 hours for 7 days. Statistical significance of the difference in the survival rates was analyzed.
These compounds were individually injected (i.p.) once a day for 3 days at 0.4 mg/kg.

E. Coli O111:B4 = test: Oxford Cup test of antibiotic activity; format: cell-based; settings: after 24 hrs; terazosin 0.2µg, 2µg, 200µg, 2mg; ampicillin 2mg
Procedure: The antibiotic activity of terazosin was measured by Oxford Cup test. Oxford Cups containing different concentrations of terazosin were placed in the petri dish wherein E. Coli O111:B4 was cultured on LB medium. The effects of terazosin and ampicillin on the growth of E. Coli were examined after 24 hrs.

[3] = read-out: Activity* (the times of pgk1 activity induced by 0.02µg/ml of the tested compound)
[4] = 0.02 µg/ml, read-out: activation of pgk1 represented by fold changes

Row | SMILES | inhibition in vivo at 0.4 mg/kg [1] [%] | fold induction at 0.02 µg/mL (pgk1; [3]) | infarct volume (% infarct volume = white area/total area) (cerebral thrombosis) | also measured
1 | CCCCCCNc1nc(N2CCN(C(=O)C3CCCO3)CC2)nc2cc(OC)c(OC)cc12 (stereo not shown) [Co.7] | 20 to 50 | 2.1 | effective to reduce the infarct volume | –
2 | COc1cc2c(N)nc(N3CCN(C(=O)C4CCCO4)CC3)nc2cc1OC1CC=CCC1 (stereo not shown) [Co.24] | 20 to 50 | 0.4 | – | –
3 | COc1c(OC)c(OC)c2c(N)nc(N3CCN(C(=O)C4CCCO4)CC3)nc2c1OC1CC=CCC1 (stereo not shown) [Co.32] | 20 to 50 | 2.8 | effective to reduce the infarct volume | –
4 | Nc1nc(N2CCN(C(=O)C3CCCO3)CC2)nc2cc3c(cc12)OCO3 (stereo not shown) [Co.15] | – | 0.6 | – | –
5 | Nc1nc(N2CCN(C(=O)C3CCCO3)CC2)nc2cc(N3CCCCC3)c(C(F)(F)F)cc12 (stereo not shown) [Co.19] | 20 to 50 | 1.4 | effective to reduce the infarct volume | –
6 | COc1cc2nc(N3CCN(C(=O)C4CCCO4)CC3)nc(NN)c2cc1OC (stereo not shown) [Co.3] | 20 to 50 | 1.9 | – | –
7 | Nc1nc(N2CCN(C(=O)C3CCCO3)CC2)nc2cc3cccnc3cc12 (stereo not shown) [Co.20] | – | 1.9 | – | –
8 | COc1c(OC)c(OC)c2c(N)nc(N3CCN(C(=O)C4CCCO4)CC3)nc2c1NC(C)=O (stereo not shown) [Co.29] | – | 2.6 | effective to reduce the infarct volume | survival against sepsis [2]: significantly increased survival against sepsis
9 | CC1(C)S[C@@H]2[C@H](NC(=O)[C@H](N)c3ccccc3)C(=O)N2[C@H]1C(=O)O [ampicillin] | – | – | – | growth of E. coli (inhibition zones) (E. Coli O111:B4): shown to inhibit E. coli growth
10 | COc1cc2nc(N3CCN(C(=O)C4CCCO4)CC3)nc(NO)c2cc1OC (stereo not shown) [Co.4] | – | 3.4 | effective to reduce the infarct volume | survival against sepsis [2]: significantly increased survival against sepsis
11 | COc1cc2nc(N3CCN(C(=O)C4CCCO4)CC3)nc(NC3CCCCC3)c2cc1OC (stereo not shown) [Co.9] | 20 to 50 | 1.4 | – | survival against sepsis [2]: significantly increased survival against sepsis
12 | COc1cc2c(N)nc(N3CCN(C(=O)C4CCCO4)CC3)nc2cc1NC(=O)c1ccccc1 (stereo not shown) [Co.23] | – | 0.7 | – | –
13 | COc1cc2nc(N3CCN(C(=O)C4CCCO4)CC3)nc(N3CCCCC3)c2cc1OC (stereo not shown) [Co.10] | – | 0.7 | – | –
14 | COc1cc2c(N)nc(N3CCN(C(=O)C4CCCO4)CC3)nc2cc1OC(C)=O (stereo not shown) [Co.17] | – | 1.1 | – | –
15 | CCOCCOc1c(OC)c(OC)c(OCCOCC)c2c(N)nc(N3CCN(C(=O)C4CCCO4)CC3)nc12 (stereo not shown) [Co.25] | – | 2.7 | – | –
16 | COc1cc2nc(N3CCN(C(=O)C4CCCO4)CC3)nc(NCCCCC(F)(F)F)c2cc1OC (stereo not shown) [Co.8] | – | 0.9 | effective to reduce the infarct volume | –

Row | SMILES | inhibition in vivo at 0.4 mg/kg [1] [%] | fold induction at 0.02 µg/mL (pgk1; [3]) | infarct volume (% infarct volume = white area/total area) (cerebral thrombosis) | also measured
17 | COc1cc2nc(N3CCN(C(=O)C4CCCO4)CC3)nc(NC(C)=O)c2cc1OC (stereo not shown) [Co.1] | 20 to 50 | 2.9 | effective to reduce the infarct volume | survival against sepsis [2]: significantly increased survival against sepsis; fold induction at 0.02 µg/mL (pgk1; [4]): 2.9
18 | COc1cc2nc(N3CCN(C(=O)C4CCCO4)CC3)nc(NC(=O)C(F)(F)F)c2cc1OC (stereo not shown) [Co.13] | 20 to 50 | 1.8 | effective to reduce the infarct volume | survival against sepsis [2]: significantly increased survival against sepsis
19 | COc1c(OC)c(OC)c2c(N)nc(N3CCN(C(=O)C4CCCO4)CC3)nc2c1F (stereo not shown) [Co.28] | – | 1.2 | – | survival against sepsis [2]: significantly increased survival against sepsis
20 | COc1cc2nc(N3CCN(C(=O)C4CCCO4)CC3)nc(NC(=O)c3ccccc3)c2cc1OC (stereo not shown) [Co.14] | – | 1.5 | effective to reduce the infarct volume | –
21 | C=CCNc1nc(N2CCN(C(=O)C3CCCO3)CC2)nc2cc(OC)c(OC)cc12 (stereo not shown) [Co.5] | – | 1.5 | – | –
22 | C#CCNc1nc(N2CCN(C(=O)C3CCCO3)CC2)nc2cc(OC)c(OC)cc12 (stereo not shown) [Co.6] | – | 1.2 | – | –
23 | COc1c(OC)c(OC)c2c(N)nc(N3CCN(C(=O)C4CCCO4)CC3)nc2c1NC(=O)c1ccccc1 (stereo not shown) [Co.31] | – | 0.6 | – | –
24 | CCCc1cc2nc(N3CCN(C(=O)C4CCCO4)CC3)nc(N)c2cc1OC (stereo not shown) [Co.22] | – | 2.4 | – | –
25 | CCCCc1c(OC)c(OC)c(OC)c2c(N)nc(N3CCN(C(=O)C4CCCO4)CC3)nc12 (stereo not shown) [Co.30] | – | 1.8 | – | –
26 | COc1c(OC)c(OC)c2c(N)nc(N3CCN(C(=O)C4CCCO4)CC3)nc2c1OC(C)=O (stereo not shown) [Co.26] | – | 3.2 | – | –
27 | COc1cc2nc(N3CCN(C(=O)C4CCCO4)CC3)nc(N(C)CCOCCO)c2cc1OC (stereo not shown) [Co.11] | – | 2.1 | – | –
28 | COc1cc2nc(N3CCN(C(=O)C4CCCO4)CC3)nc(Nc3ccccc3)c2cc1OC (stereo not shown) [Co.12] | – | 2.6 | – | –
29 | COc1cc2nc(N3CCN(C(=O)C4CCCO4)CC3)nc(NCCOCCO)c2cc1OC (stereo not shown) [Co.2] | – | 2.3 | – | fold induction at 0.02 µg/mL (pgk1; [4]): 2.3
30 | COc1c(OC)c(C(F)(F)F)c2c(N)nc(N3CCN(C(=O)C4CCCO4)CC3)nc2c1N1CCCCC1 (stereo not shown) [Co.27] | 20 to 50 | 0.9 | – | –
31 | CCOCCOc1cc2nc(N3CCN(C(=O)C4CCCO4)CC3)nc(N)c2cc1OCCOCC (stereo not shown) [Co.16] | 20 to 50 | 1.7 | effective to reduce the infarct volume | –
32 | COc1cc2c(N)nc(N3CCN(C(=O)C4CCCO4)CC3)nc2cc1F (stereo not shown) [Co.18] | – | 1.3 | – | survival against sepsis [2]: significantly increased survival against sepsis
